Test results taken from ChEMBL document CHEMBL3045394, “Synthesis and antiinflammatory activity of certain benzothieno[3,2-d][1,2,4]triazolo[4,3-b] pyridazine derivatives” (2012).

These compounds were tested on Rattus norvegicus (assay: Anti-inflammatory activity inRattus norvegicus albino (rat) assessed as inhibition of carageenaan-induced paw edema at 10 mg/kg, po administered 1 hr prior to carrageenan-challenge measured after 4 hr relative to control).
`Oc1nn2cnnc2c2c1sc1c(Br)cccc12` showed an inhibition in vivo at 10 mg/kg of 9.7%.
With `NNc1nn2cnnc2c2c1sc1c(Br)cccc12` the inhibition in vivo at 10 mg/kg was 52.8%.
With `COc1ccccc1-c1nnc2c3c(sc4c(Br)cccc43)c(NN)nn12` the inhibition in vivo at 10 mg/kg was 78.7%.
With `COc1ccccc1-c1nnc2c3c(sc4c(Br)cccc43)c(N3CCCCC3)nn12` the inhibition in vivo at 10 mg/kg was 8.4%.
For `COc1ccc2c(c1)c(CC(=O)O)c(C)n2C(=O)c1ccc(Cl)cc1` [INDOMETHACIN], the inhibition in vivo at 10 mg/kg was 50.5%.
